The text below walks through data of US5349070A, “Salicylic acid-maltol conjugates” (priority 1993, dated 1994).

The test system of data set [1] is Malondialdehyde (MDA) Generation in Mouse Liver Homogenate. The experiment in a line: Inhibition of malondialdehyde (MDA) generation (antioxidant activity), in vitro. In kind it is biochemical, mouse (male ICR). Here is the method:
Animal: male ICR mouse weighing 20-25 g
1. Maltol (10% DMF saline)
2. Aspirin (10% DMF saline).
TBA reagents: Thiobarbituric acid (0.3%) and SDS (0.4%) were dissolved in 7.5% acetate buffer (pH 4.0)
Antioxidant activities were determined following the method of Okawa et al. (Biochemistry (Japan) 1977), 49(8), 829). Mouse livers were homogenized with ten volumes of saline. To 10 ml of homogenate was added 10 ml of the sample solution, and the mixture was incubated at 37° C. for 3 hrs. Then 3.6 ml of TBA reagents were added to the mixture and the resulting mixture was heated at 98° C. for 1 hr. After the temperature was reduced to 24° C., the reaction mixture was extracted with 2 ml of butanol and the butanol phase was separated by centrifugation. The absorbance at 532 nm of the butanol phase was measured.

Data set [2] in a line: Gastric ulceration experiment. It is filed as in vivo, rat (male Sprague Dawley). Particulars: for Ulcer Index: mean ± S.E.; for gastric ulceration: compound A versus aspirin at four times lower dose. The method, then:
Animal: Male Sprague Dawley rats weighing 160-210 g (6 rats as a group).
Reference: Aspirin (200 mg/kg in 1% CMC).
(§1) Medication: Oral administration.
Rats were deprived of food but allowed free access to water for 24 hrs (water was removed 2 hrs before experiments). Samples suspended in 1% CMC solution […]. The stomachs were then inflated by injecting 10 ml of 2% formalin through the esophageal orifice and immersed in 2% formalin for 10 min. Subsequently, the stomachs were incised along the greater curvature and the length of each leison in the glandular portion was measured. The sum of the lengths (mm) of all lesions for each rat was used as the ulcer index.

The nature of data set [3]: Bleeding time. In kind it is in vivo. Particulars: for Bleeding Time: in s (unit assumed); for percent increment of bleeding time: P < 0.05. Here is the method:
To the experimental groups, equivalent doses of compound A and aspirin were administered separately for 10 days.

The conditions of data set [4]: background statement; cited from earlier work.
The test system of data set [5] is Typhoid vaccine pyrogen. The experiment in a line: Antipyretic activity (typhoid vaccine pyrogen, rectal temperature). It is filed as in vivo, mouse (male ICR). The following applies: oral, mouse, FIG. 3; compound A 160, 500 mg/kg, aspirin 100 mg/kg. The method, then:
Animal: Male ICR mouse weighing 17-21 g (5 mice as a group).
Sample: Compound A (160 mg/kg, 500 mg/kg in 1% CMC).
Reference: Aspirin (100 mg/kg in 1% CMC).
Pyrogen: Typhoid vaccine (0.1 ml/mouse, i.p.).
Antipyretic activities were measured according to Winter et al. with some modifications (Winter, C. A. et al. (1963), J. Pharmacol Exptl. Therap., 141, […]). Rectal temperature was measured using digitalized thermometer inserted 3 cm deep at one hr intervals. Typhoid vaccine was injected to mouse i.p. at zero time. After 2 hrs, aspirin and sample (compound in Example 1) were orally given to mouse.

Data set [6] has as its system Carrageenin-induced edema. The data set can be described thus: Antiinflammatory activity by Carrageenin-induced edema test. The following applies: for % Increment of Edema: mean ± S.E. It is filed as in vivo, rat (male Sprague Dawley). Here is the method: Animal: Male Sprague Dawley rats weighing approx. 170 g (5 rats as a group). […]
as §1
The inhibitions of Carrageenin-induced edema by compound A and aspirin was measured according to Winster et al. (Winter, C. A., Risley, E. A. and Nuss, G. W. (1963), J: Pharmaco. Exptl. Therap., 141, 369). Samples were administered orally at 6 hrs and 30 min before Carrageenin injection. Edema was induced with subcutaneous injection of 0.05 ml of 1% Carrageenin in saline solution in a hind paw of rat. Then, the volume of edema was measured at time intervals.

Data set [7] deals with BSA. The experiment in a line: Protein stabilizing activity (heat denaturation of BSA). In kind it is biochemical. Particulars: 1×10^-3 M in 5% DMF; data not shown. The method, then: Sample: Compound A (1×10^-3 M in 5% DMF solution
The protein stabilizng activity of the sample was analyzed as described by Mizushima (Mizushima, Y. (1965), Lancet, 1, 169). Briefly, 2 ml of 0.75% BSA in 0.1M phosphate-buffered saline (pH 5.3) was mixed with 1 ml of appropriately diluted test sample solution. After standing at room temperature for 15 min, the reaction mixture was incubated at 66.5°C. and 0° C. for 3 min and 15 min, respectively. The degree of heat denaturation of BSA was estimated by the turbidity of colloidal precipitate, whose absorbance at 570 nm was measured.

The subject of data set [8] is platelets. The data set can be described thus: Antithrombotic activity (thrombin-induced platelet aggregation). Particulars: 1×10^-3 M. It is filed as cell-based, rat (male Sprague Dawley). The method, then: Animal: Male Sprague Dawley rate weighing 180-250 g.
Sample: Compound A (1×10^-3 M) in 5% DMF solution.
Rats were anaesthetized with ether and 9 volumes of blood were collected by heart puncture with 1 volume of 3.12% sodium citrate. Combined blood samples were centrifuged at 1,200 rpm for 20 min at 4° C. to obtain platelet-rich plasma. Following centrifugation at 3,000 rpm for 10 min at 4° C., the resulting precipitates (platelets) were resuspended in 0.01M phosphate-buffered saline (pH 7.4). To 1 ml of this solution was added 0.1 ml of the sample solution. After 30 min incubation at 37° C., 10 units of thrombin was added and the reaction mixture was incubated for 1 hr.

Data set [9] in a line: Acute toxicity test. It is filed as in vivo. The following applies: oral, mouse.
Data set [10] in a line: General activities and side effects stated in the description. Particulars: concluding statement.
[11] abbreviates: final concentration 2.5 × 10^-3 M.
[12] abbreviates: final concentration 2.5 × 10^-4 M.
Setting [13] is: final concentration 6.3 × 10^-5 M.
The mark [14] stands for this setting: final concentration 1.3 × 10^-5 M.

As for `CC(=O)Oc1ccccc1C(=O)O` [Aspirin, Acetylsalicylic acid, reference compound], the “% Inhibition of Malondialdehyde (MDA) Generation” value (“% Inhibition of Malondialdehyde” below) in [1] (setting [11]) came to 8.4 ± 4.2%; in [1] (setting [12]), 0.8 ± 0.4%; in data set [1] (setting [13]), 4.6 ± 2.3%. Further, the “number of rats that exhibited gastric ulcer” value in data set [2] (200 mg/kg P.O.) was 5/5. Further, the “Ulcer Index” value in data set [2] (200 mg/kg P.O.) is given as 29.3 ± 6.15 mm. Moreover, in data set [2], the gastric ulceration entry is recorded as “caused ulceration”. Besides, the “Bleeding Time” value was 353.5 ± 74.7 in data set [3] (15 mg/kg P.O., day 2); 372.7 ± 50.1 in data set [3] (15 mg/kg P.O., day 4); 516.6 ± 119.4 in [3] (15 mg/kg P.O., day 6); 493.6 ± 86.6 in [3] (15 mg/kg P.O., day 8); 441.9 ± 46.2 in data set [3] (15 mg/kg P.O., day 10). In addition, in [4], the “gastric ulceration induced by aspirin” value was “induces gastric ulceration”. The “pharmacological activities of aspirin” value in [4] was “antipyretic, antianalgesic, antioxidant and antithromobotic activities”.

Turning to `CC(=O)Oc1ccccc1C(=O)Oc1c(C)occc1=O` [Compound A, maltol-acetylsalicylate ester], the “% Inhibition of Malondialdehyde” value in [1] (setting [14]) is recorded as 4.3 ± 2.1%; in data set [1] (setting [11]), 91.9 ± 4.1%; in data set [1] (setting [12]) it was 58.9 ± 7.0%; in data set [1] (setting [13]), 2.3 ± 1.1%. In addition, in data set [5], the “antipyretic potency compared to aspirin” value was “five times lower than that of aspirin”. Moreover, the “% Increment of Edema” value in data set [6] (300 mg/kg P.O., 0.5 hr) turned out to be 46.5 ± 13.98%; in data set [6] (300 mg/kg P.O., 1.5 hr) it was 51.2 ± 9.47%; in data set [6] (300 mg/kg P.O., 2.5 hr), 56.1 ± 11.50%; in data set [6] (300 mg/kg P.O., 3.5 hr), 69.4 ± 13.89%; in [6] (300 mg/kg P.O., 4.5 hr), 81.9 ± 9.96%; in data set [6] (400 mg/kg P.O., 0.5 hr), 20.3 ± 6.85%. Further, the “% Increment of Edema” value was 33.8 ± 3.19% in data set [6] (400 mg/kg P.O., 1.5 hr); 50.2 ± 6.43% in data set [6] (400 mg/kg P.O., 2.5 hr); 58.4 ± 6.09% in data set [6] (400 mg/kg P.O., 3.5 hr); 66.2 ± 8.52% in [6] (400 mg/kg P.O., 4.5 hr). Further, the anti-inflammatory effect result in data set [6] (doses of 300 and 450 mg/kg, oral) was “no anti-inflammatory effect”. Also, in data set [7], the protein stabilizing activity entry was “did not contain protein stabilizing activity”. Further, the antithrombotic activity result in data set [8] is on record as “showed antithrombotic activity”. In addition, in data set [8] (10 units thrombin, naked eye, 1 hr), the platelet aggregation entry is listed as “platelet aggregation was not observed”. The “Ulcer Index” value in [2] (100 mg/kg P.O.) is 0 mm; in data set [2] (200 mg/kg P.O.), 0 mm; in data set [2] (800 mg/kg P.O.) it was 0.7 ± 0.61 mm. Further, in data set [2] (800 mg/kg P.O.), the “number of rats that exhibited gastric ulcer” value is listed as 1/6. Moreover, in data set [2] (at 5 times higher dose than aspirin), the gastric ulcer result was “did not cause gastric ulcer”. Besides, the gastric ulceration result in data set [2] was “did not cause gastric ulceration”. For the same compound, the “Bleeding Time” value in data set [3] (15 mg/kg P.O., day 2) was determined as 339.6 ± 53.9; in [3] (15 mg/kg P.O., day 4), 396.9 ± 56.0; in [3] (15 mg/kg P.O., day 6), 429.4 ± 50.6; in data set [3] (15 mg/kg P.O., day 8) it was 518.3 ± 102.8; in data set [3] (15 mg/kg P.O., day 10) it was 472.1 ± 57.4; in data set [3] (45 mg/kg P.O., day 10), 467.8 ± 55.9. Further, the “percent increment of bleeding time” value in data set [3] (15 mg/kg P.O., day 10) is on record as 50%; in data set [3] (45 mg/kg P.O., day 10) it was 48%. The “prolongation of the bleeding time” value in data set [3] (administered for 10 days) is 50%. This compound also gave an LD50 in data set [9] (in vivo) of 2140 mg/kg. In data set [9], the toxicity result is on record as “little toxicity”. Also, the side effects entry in data set [10] is listed as “little side effects”.

With `Cc1occc(=O)c1O` [Maltol, maltol], the “% Inhibition of Malondialdehyde” value in [1] (setting [14]) is on record as 5.2 ± 2.6%; in [1] (setting [11]), 99.4 ± 0.3%; in data set [1] (setting [12]), 94.8 ± 2.6%; in data set [1] (setting [13]) it was 13.4 ± 6.7%.

Regarding `CCCCC1C(=O)N(c2ccccc2)N(c2ccccc2)C1=O` [Phenylbutazone, reference compound], the “% Increment of Edema” value in data set [6] (100 mg/kg P.O., 0.5 hr) is 11.8 ± 6.26%; in data set [6] (100 mg/kg P.O., 1.5 hr), 20.9 ± 6.88%; in [6] (100 mg/kg P.O., 2.5 hr) it was 21.9 ± 9.22%; in data set [6] (100 mg/kg P.O., 3.5 hr) it was 36.2 ± 14.45%.
